Experimental data published in patent US10688093B2, “Methods, compositions, and uses of novel Fyn kinase inhibitors” (priority 2015, dated 2020).

The compounds below were run against full-length recombinant human FYN A (Homo sapiens (Human), UniProt P06241) (assay: ADP-Glo Kinase Assay of FYN kinase inhibition). Details: primary screen, initial compounds.
full-length recombinant human FYN A, sequence (P06241 whole entry): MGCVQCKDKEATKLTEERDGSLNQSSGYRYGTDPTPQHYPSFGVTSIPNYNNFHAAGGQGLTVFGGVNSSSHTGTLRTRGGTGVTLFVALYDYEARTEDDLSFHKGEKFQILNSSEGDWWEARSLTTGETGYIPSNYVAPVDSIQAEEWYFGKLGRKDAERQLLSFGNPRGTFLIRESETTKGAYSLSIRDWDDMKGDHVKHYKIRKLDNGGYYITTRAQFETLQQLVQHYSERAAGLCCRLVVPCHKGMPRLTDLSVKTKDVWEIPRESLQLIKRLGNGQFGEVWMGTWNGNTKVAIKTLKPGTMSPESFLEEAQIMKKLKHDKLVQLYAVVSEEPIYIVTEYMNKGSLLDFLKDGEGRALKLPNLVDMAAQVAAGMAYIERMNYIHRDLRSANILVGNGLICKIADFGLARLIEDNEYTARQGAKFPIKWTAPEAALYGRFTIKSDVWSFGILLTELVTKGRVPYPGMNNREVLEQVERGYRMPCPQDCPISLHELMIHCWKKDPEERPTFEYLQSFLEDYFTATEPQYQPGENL
Type: biochemical
Method in brief: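 ADP-Glo read-out of peptide phosphorylation after 90 min RT with 12.5 pmol ATP and 100 pg 12-mer substrate. Enzyme was N-GST full-length human FYN A from insect cells, 3 pg, pre-incubated 30 min with compound, 10 points from 10 μM top, 3-fold steps; IC50 from curve.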
With Oc1cccc(-c2cnc3cnc(-c4cccs4)cn23)c1 [Compound 209, 3-[6-(2-thienyl)imidazo [1,2-a]pyrazin-3-yl]phenol] the IC50 was 2780 nM.
Cn1cc(-c2cn3c(-c4ccc(Oc5ccccc5)cc4)cnc3cn2)cn1 [Compound 210, 6-(1-methylpyrazol-4-yl)-3-(4-phenoxyphenyl) imidazo[1,2-a]pyrazine] gave an IC50 of 1930 nM.
Oc1cccc(-c2cnc3cnc(-c4ccco4)cn23)c1 [Compound 211, 3-[6-(2-furyl)imidazo [1,2-a]pyrazin-3-yl]phenol] was tested, and the IC50 was 6110 nM.
COc1ccc(-c2cn3c(-c4ccc(O)cc4)cnc3cn2)cn1 [Compound 212, 4-[6-(6-methoxy-3-pyridyl)imidazo [1,2-a]pyrazin-3-yl]phenol] was tested, and the IC50 was 1980 nM.
OCc1ccc(-c2cn3c(-c4cccc(O)c4)cnc3cn2)cc1 [Compound 213, 3-[6-[4-(hydroxymethyl)phenyl]imidazo [1,2-a]pyrazin-3-yl]phenol] gave an IC50 of 3360 nM.
In the case of Cn1cc(-c2cn3c(-c4cccc(O)c4)cnc3cn2)cn1 [Compound 214, 3-[6-(1-methylpyrazol-4-yl)imidazo[1,2-a]pyrazin-3-yl]phenol], the IC50 is reported as 2780 nM.
Cn1cc(-c2cn3c(-c4ccc(O)cc4)cnc3cn2)cn1 [Compound 215, 4-[6-(1-methylpyrazol-4-yl)imidazo[1,2-a]pyrazin-3-yl]phenol] showed an IC50 of 1590 nM.
CN1CCN(c2ccc(-c3cn4c(-c5ccc(Oc6ccccc6)cc5)cnc4cn3)cn2)CC1 [Compound 216, 6-[6-(4-methylpiperazin-1-yl)-3-pyridyl]-3-(4-phenoxyphenyl) imidazo[1,2-a]pyrazine] gave an IC50 of 2130 nM.
Work on O=C(NCCO)c1cccc(-c2cn3c(-c4ccc(Oc5ccccc5)cc4)cnc3cn2)c1 [Compound 217, N-(2-hydroxyethyl)-3-[3-(4-phenoxyphenyl)imidazo[1,2-a]pyrazin-6-yl]benzamide] yielded an IC50 of 1480 nM.
For CN(C)CCNC(=O)c1ccc(-c2cn3c(-c4ccc(Oc5ccccc5)cc4)cnc3cn2)cc1 [Compound 218, N-(2-dimethylamino-ethyl)-4-[3-(4-phenoxyphenyl)imidazo[1,2-a]pyrazin-6-yl]benzamide], the IC50 was 165 nM.
O=C(NCCO)c1ccc(-c2cn3c(-c4ccc(Oc5ccccc5)cc4)cnc3cn2)cc1 [Compound 219, N-(2-hydroxyethyl)-4-[3-(4-phenoxyphenyl)imidazo[1,2-a]pyrazin-6-yl]benzamide] showed an IC50 of 623 nM.
In the case of CN(C)CCCNC(=O)c1ccc(-c2cn3c(-c4cccc(Cl)c4)cnc3cn2)cc1 [Compound 220, 4-[3-(3-chlorophenyl)imidazo[1,2-a]pyrazin-6-yl]-N-[3-(dimethylamino)propyl]benzamide], the IC50 is reported as 8430 nM.
Compound Nc1ccc(-c2cn3c(-c4ccc(Oc5ccccc5)cc4)cnc3cn2)cn1 [Compound 221, 5-[3-(4-phenoxyphenyl)imidazo[1,2-a]pyrazin-6-yl]pyridin-2-amine] has an IC50 of 1720 nM.
CN(C)CCCNC(=O)c1ccc(-c2cn3c(-c4ccsc4)cnc3cn2)cc1 [Compound 222, N-[3-(dimethylamino)propyl]-4-[3-(3-thienyl)imidazo [1,2-a]pyrazin-6-yl]benzamide] was tested, and the IC50 was 3870 nM.
COc1ccc(-c2cnc3cnc(-c4ccc(N5CCN(C)CC5)cc4)cn23)cc1 [Compound 223, 3-(4-methoxyphenyl)-6-[4-(4-methyl-piperazin-1-yl)phenyl] imidazo[1,2-a]pyrazine] was tested, and the IC50 was 5250 nM.
In the case of O=C(NCCO)c1cccc(-c2cn3c(-c4ccsc4)cnc3cn2)c1 [Compound 224, N-(2-hydroxyethyl)-3-[3-(3-thienyl)imidazo [1,2-a]pyrazin-6-yl]benzamide], the IC50 is reported as 3670 nM.
CN1CCN(c2ccc(-c3cn4c(-c5ccsc5)cnc4cn3)cn2)CC1 [Compound 225, 6-[6-(4-methylpiperazin-1-yl)-3-pyridyl]-3-(3-thienyl)imidazo [1,2-a]pyrazine] showed an IC50 of 7050 nM.
Nc1ccc(-c2cn3c(-c4ccsc4)cnc3cn2)cn1 [Compound 226, 5-[3-(3-thienyl)imidazo [1,2-a]pyrazin-6-yl]pyridin-2-amine] showed an IC50 of 2460 nM.
With c1cc(-c2cn3c(-c4ccsc4)cnc3cn2)cs1 [Compound 227, 3,6-bis(3-thienyl)imidazo [1,2-a]pyrazine] the IC50 was 8470 nM.
With CN(C)CCNC(=O)c1ccc(-c2cn3c(-c4ccsc4)cnc3cn2)cc1 [Compound 228, N-(2-dimethylamino-ethyl)-4-[3-(3-thienyl)imidazo [1,2-a]pyrazin-6-yl]benzamide] the IC50 was 1900 nM.
Cn1cc(-c2cnc3cnc(-c4ccccc4Oc4ccccc4)cn23)cn1 [Compound 229, 3-(1-methylpyrazol-4-yl)-6-(2-phenoxyphenyl) imidazo[1,2-a]pyrazine] was tested, and the IC50 was 1820 nM.
CN1CCN(c2ccc(-c3cn4c(-c5cccc(O)c5)cnc4cn3)cn2)CC1 [Compound 230, 3-[6-[6-(4-methylpiperazin-1-yl)-3-pyridyl]imidazo [1,2-a]pyrazin-3-yl]phenol] gave an IC50 of 3140 nM.
Compound CN(C)CCCOc1ccc(-c2cn3c(-c4ccc5c(c4)OCO5)cnc3cn2)cn1 [Compound 231, 3-[[5-[3-(1,3-benzodioxol-5-yl)imidazo[1,2-a]pyrazin-6-yl]-2-pyridyl]oxy]-N,N-dimethyl-propan-1-amine] has an IC50 of 9850 nM.
With CCOc1cccc(-c2cn3c(-c4cccc(O)c4)cnc3cn2)c1 [Compound 232, 3-[6-(3-ethoxyphenyl)imidazo[1,2-a]pyrazin-3-yl]phenol] the IC50 was 6690 nM.
Work on CN1CCN(c2ccc(-c3cn4c(-c5ccc6c(c5)OCO6)cnc4cn3)cc2)CC1 [Compound 233, 3-(1,3-benzodioxol-5-yl)-6-[4-(4-methylpiperazin-1-yl)phenyl] imidazo[1,2-a]pyrazine] yielded an IC50 of 7930 nM.
Compound Oc1cccc(-c2cnc3cnc(-c4ccsc4)cn23)c1 [Compound 234, 3-[6-(3-thienyl)imidazo [1,2-a]pyrazin-3-yl]phenol] has an IC50 of 2520 nM.
For CN1CCN(c2ccc(-c3cn4c(-c5cccc(O)c5)cnc4cn3)cc2)CC1 [Compound 235, 3-[6-[4-(4-methyl-piperazin-1-yl)phenyl]imidazo [1,2-a]pyrazin-3-yl]phenol], the IC50 was 1590 nM.
CN(C)CCCNC(=O)c1ccc(-c2cn3c(-c4ccc(Cl)cc4)cnc3cn2)cc1 [Compound 236, 4-[3-(4-chlorophenyl)imidazo[1,2-a]pyrazin-6-yl]-N-[3-(dimethylamino)propyl]benzamide] was tested, and the IC50 was 4900 nM.
With CN(C)CCNC(=O)c1ccc(-c2cn3c(-c4ccc5c(c4)OCO5)cnc3cn2)cc1 [Compound 237, 4-[3-(1,3-benzodioxol-5-yl)imidazo[1,2-a]pyrazin-6-yl]-N-(2-dimethyl-aminoethyl) benzamide] the IC50 was 3800 nM.
With Nc1ccc(-c2cn3c(-c4cccc(O)c4)cnc3cn2)cn1 [Compound 238, 3-[6-(6-amino-3-pyridyl)imidazo [1,2-a]pyrazin-3-yl]phenol] the IC50 was 2890 nM.
With CN(C)CCNC(=O)c1ccc(-c2cn3c(-c4cccc(O)c4)cnc3cn2)cc1 [Compound 239, N-(2-dimethylamino-ethyl)-4-[3-(3-hydroxyphenyl)imidazo[1,2-a]pyrazin-6-yl]benzamide] the IC50 was 812 nM.
Work on CN(C)CCNC(=O)c1ccc(-c2cn3c(-c4ccc(Cl)cc4)cnc3cn2)cc1 [Compound 240, 4-[3-(4-chlorophenyl)imidazo[1,2-a]pyrazin-6-yl]-N-(2-dimethylamino-ethyl)benzamide] yielded an IC50 of 4160 nM.
With Oc1cccc(-c2cnc3cnc(-c4ccc(NCCN5CCOCC5)nc4)cn23)c1 [Compound 241, 3-[6-[6-(2-morpholino-ethylamino)-3-pyridyl]imidazo [1,2-a]pyrazin-3-yl]phenol] the IC50 was 2940 nM.
CN(C)CCCNC(=O)c1ccc(-c2cn3c(-c4cccc(O)c4)cnc3cn2)cc1 [Compound 242, N-[3-(dimethylamino)propyl]-4-[3-(3-hydroxyphenyl)imidazo[1,2-a]pyrazin-6-yl]benzamide] was tested, and the IC50 was 1610 nM.
O=C(NCCO)c1ccc(-c2cn3c(-c4cccc(O)c4)cnc3cn2)cc1 [Compound 243, N-(2-hydroxyethyl)-4-[3-(3-hydroxyphenyl)imidazo[1,2-a]pyrazin-6-yl]benzamide] was tested, and the IC50 was 1720 nM.
CN(C)CCCNC(=O)c1ccc(-c2cn3c(-c4ccc5c(c4)OCO5)cnc3cn2)cc1 [Compound 244, 4-[3-(1,3-benzodioxol-5-yl)imidazo[1,2-a]pyrazin-6-yl]-N-[3-(dimethylamino)propyl]benzamide] showed an IC50 of 6030 nM.
In the case of CN1CCN(c2ccc(-c3cn4c(-c5ccccc5)cnc4cn3)cn2)CC1 [Compound 245, 6-[6-(4-methylpiperazin-1-yl)-3-pyridyl]-3-phenyl-imidazo[1,2-a]pyrazine], the IC50 is reported as 10900 nM.
For CC(C)N1CCN(c2ccc(-c3cn4c(-c5cccc(O)c5)cnc4cn3)cc2)CC1 [Compound 246, 3-[6-[4-(4-isopropyl-piperazin-1-yl)phenyl]imidazo [1,2-a]pyrazin-3-yl]phenol], the IC50 was 2610 nM.
Work on Nc1ccc(-c2cn3c(-c4ccc5c(c4)OCO5)cnc3cn2)cn1 [Compound 247, 5-[3-(1,3-benzodioxol-5-yl)imidazo[1,2-a]pyrazin-6-yl]pyridin-2-amine] yielded an IC50 of 10200 nM.
In the case of CN(C)CCCOc1ccc(-c2cn3c(-c4ccc(O)cc4)cnc3cn2)cn1 [Compound 248, 4-[6-[6-[3-(dimethylamino)propoxy]-3-pyridyl]imidazo [1,2-a]pyrazin-3-yl]phenol], the IC50 is reported as 1320 nM.
Compound Oc1ccc(-c2cnc3cnc(-c4ccc(NCCN5CCOCC5)nc4)cn23)cc1 [Compound 249, 4-[6-[6-(2-morpholino-ethylamino)-3-pyridyl]imidazo [1,2-a]pyrazin-3-yl]phenol] has an IC50 of 1310 nM.
With CN1CCN(c2ccc(-c3cn4c(-c5ccc(O)cc5)cnc4cn3)cn2)CC1 [Compound 250, 4-[6-[6-(4-methylpiperazin-1-yl)-3-pyridyl]imidazo [1,2-a]pyrazin-3-yl]phenol] the IC50 was 2210 nM.
In the case of CN(C)C(=O)c1cccc(-c2cnc3sc(NC4CCCCC4)nn23)c1 [Compound 251, 3-[2-(cyclo-hexylamino)imidazo[2,1-a] [1,3,4]thiadiazol-5-yl]-N,N-dimethyl-benzamide], the IC50 is reported as 718 nM.
